Columns and labels:
Type in all cases: in vivo
Settings in all cases: after emergence
zinnia = test: Herbicidal activity, post-emergence stem and leaf spray, greenhouse: zinnia control
Protocol: (§1) Seeds of broadleaf weeds (zinnia and piemarker) or grassy weeds (green bristlegrass and barnyard grass) were respectively sown in a paper cup having a diameter of 7 cm and containing nutrient soil; after sowing, the seeds were covered with 1 cm of soil, the soil was pressed and watered, and then the seeds were cultivated in a greenhouse according to a conventional method; and stems and leaves were sprayed after 2-3 leaf stage of the weeds.
(§2) After the original medicinal acetone was dissolved, the test requires to use 1‰ of Tween 80 to stand in running water to prepare the solution to be tested with a required concentration. According to the design dose of the test, spray treatment was carried out on a track-type crop sprayer (designed and produced by British Engineer Research Ltd.) (spray pressure is 1.95 kg/cm^2, spray volume is 500 L/hm^2 and track speed is 1.48 km/h). The test was repeated for three times. The test material was treated and then placed in an operation hall. The medicinal liquid was naturally dried in the shade, and then was placed in a greenhouse and managed according to the conventional method. The response of the weeds to the drug was observed and recorded. After treatment, the control effects of the test drug on the weeds were visually inspected regularly, expressed by 0-100%. “0” represents no control effect and “100%4” represents complete killing.
According to the above test method, part of the compounds of the formula I and KC1 are selected for activity test of controlling the zinnia.

barnyard grass = test: Herbicidal activity, post-emergence stem and leaf spray, greenhouse: barnyard grass control
Protocol: as §1, §2
According to the above test method, part of the compounds of the formula I and KC1 or KC2 are selected for activity test of controlling the barnyard grass.

green bristlegrass = test: Herbicidal activity, post-emergence stem and leaf spray, greenhouse: green bristlegrass control
Protocol: as §1, §2
According to the above test method, part of the compounds of the formula I and KC1 or KC2 are selected for activity test of controlling the green bristlegrass.

piemarker = test: Herbicidal activity, post-emergence stem and leaf spray, greenhouse: piemarker control
Protocol: as §1, §2
According to the above test method, part of the compounds of the formula and KC1 are selected for activity test of controlling the piemarker.

[1] = dose 600 g a.i./hm^2, visual, 0 = no control effect, 100% = complete killing

| Structure (SMILES) | Zinnia control activity (control effect %) (zinnia; dose 37.5 g a.i./hm^2) | Zinnia control activity (control effect %) (zinnia; dose 150 g a.i./hm^2) | Zinnia control activity (control effect %) (zinnia; [1]) | Barnyard grass control activity (control effect %) (barnyard grass; dose 37.5 g a.i./hm^2) | Barnyard grass control activity (control effect %) (barnyard grass; dose 150 g a.i./hm^2) | Barnyard grass control activity (control effect %) (barnyard grass; dose 600 g a.i./hm^2) | Green bristlegrass control activity (control effect %) (green bristlegrass; dose 37.5 g a.i./hm^2) | Green bristlegrass control activity (control effect %) (green bristlegrass; dose 150 g a.i./hm^2) | Green bristlegrass control activity (control effect %) (green bristlegrass; dose 600 g a.i./hm^2) | Piemarker control activity (control effect %) (piemarker; dose 37.5 g a.i./hm^2) | Piemarker control activity (control effect %) (piemarker; dose 150 g a.i./hm^2) | Piemarker control activity (control effect %) (piemarker; dose 600 g a.i./hm^2) |
| --- | --- | --- | --- | --- | --- | --- | --- | --- | --- | --- | --- | --- |
| COCCOCc1c(S(C)(=O)=O)ccc(C(=O)c2c(C)nn(C)c2OC(=O)/C=C/c2ccc(-c3ccccc3)cc2)c1Cl [Compound 1-81] | 90% | 95% | 100% | 80% | 90% | 95% |  |  |  |  |  |  |
| Cc1c(C(=O)c2cnn(C)c2OC(=O)C2=CCCC2)ccc(S(C)(=O)=O)c1C1=NOCC1 [Compound 2-123] |  |  |  | 100% | 100% | 100% | 90% | 100% | 100% |  |  |  |
| Cc1nn(C)c(OC(=O)/C=C/c2ccccc2)c1C(=O)c1ccc([N+](=O)[O-])cc1Cl [KC1, reference compound] | 0% | 0% | 0% | 0% | 0% | 0% | 10% | 10% | 10% | 20% | 70% | 100% |
| Cc1nn(C)c(OC(=O)C2=CCCCC2)c1C(=O)c1ccc(S(C)(=O)=O)c(OCC(F)(F)F)c1C [Compound 2-37] |  |  |  | 95% | 100% | 100% |  |  |  |  |  |  |
| Cc1nn(C)c(OC(=O)/C=C/c2ccccc2)c1C(=O)c1ccc(C(F)(F)F)cc1S(C)(=O)=O [Compound 1-1] |  |  |  |  |  |  |  |  |  | 90% | 95% | 100% |
| COCCOc1c(S(C)(=O)=O)ccc(C(=O)c2c(C)nn(C)c2OC(=O)/C=C/c2ccccc2)c1C [Compound 1-259] |  |  |  | 100% | 100% |  | 100% | 100% |  | 100% | 100% |  |
| COCCOc1c(S(C)(=O)=O)ccc(C(=O)c2cnn(C)c2OC(=O)C2=CCCCC2)c1C [Compound 2-67] |  |  |  | 90% | 100% | 100% |  |  |  |  |  |  |
| Cc1nn(C)c(OC(=O)C2=CCCCC2)c1C(=O)c1ccc(S(C)(=O)=O)c(OCC2CCCO2)c1C (stereo not shown) [Compound 2-73] |  |  |  | 95% | 100% | 100% |  |  |  |  |  |  |
| Cc1c(S(C)(=O)=O)ccc(C(=O)c2cnn(C)c2OC(=O)/C=C/c2ccc3c(c2)OCO3)c1Cl [Compound 1-42] | 100% | 100% | 100% | 80% | 95% | 100% |  |  |  | 90% | 95% | 100% |
| Cc1c(C(=O)c2cnn(C)c2OC(=O)/C=C/c2ccccc2)ccc(S(C)(=O)=O)c1C1=NOCC1 [Compound 1-292] |  |  |  | 90% | 95% | 100% | 90% | 90% | 95% | 90% | 90% | 95% |
| Cn1nc(C2CC2)c(C(=O)c2ccc(C(F)(F)F)cc2S(C)(=O)=O)c1OC(=O)C1=CCCCC1 [KC2, reference compound] |  |  |  | 60% | 90% |  | 30% | 60% |  |  |  |  |
| Cc1c(C(=O)c2cnn(C)c2OC(=O)C2=CCCCC2)ccc(S(C)(=O)=O)c1C1=NOCC1 [Compound 2-121] |  |  |  |  |  |  | 80% | 90% | 98% |  |  |  |
| COCCOCc1c(S(C)(=O)=O)ccc(C(=O)c2c(C)nn(C)c2OC(=O)/C=C/c2ccc3c(c2)OCO3)c1Cl [Compound 1-82] |  |  |  | 90% | 95% | 100% |  |  |  |  |  |  |
| CCOc1c(S(C)(=O)=O)ccc(C(=O)c2c(C)nn(C)c2OC(=O)/C=C/c2ccccc2)c1C [Compound 1-280] |  |  |  | 85% | 95% | 100% | 80% | 90% | 100% |  |  |  |

Reference: patent US20230157290A1, “ALKENE-CONTAINING CARBOXYLATE COMPOUND AND USE THEREOF” (SHENYANG SINOCHEM AGROCHEMICALS R&D CO., LTD, priority 2019, published 2023)
